# Experimental data taken from patent US4350698A, “Antiallergic imidosulfamides” (SmithKline Corporation, priority 1981, dated 1982).
# Test system: slow reacting substance of anaphylaxis (SRS-A)
# Assay: Inhibition of SRS-A induced contraction of guinea pig ileum
# Type: cell-based
# Conditions: Cavia porcellus, 0.25 h; compound concentration 5×10^-6 M; partially purified SRS-A from guinea pig lung at 40 μg/ml; isolated guinea pig ileum; read-out: percent antagonism of SRS-A induced contraction
# Method: The SRS-A antagonist activity of the compounds of this invention is measured by the ability of the active medicament to inhibit SRS-A induced contraction of guinea pig ileum. In this test system, sections of ileum are resected from guinea pigs and placed in 5 ml. tissue baths containing a modified Tyrode's solution. One end of the tissue is fixed to a glass tissue holder, the other is connected to a force-displacement transducer and the tissue is placed under a tension of 500 mg. Isometric tissue contractions are recorded on a six channel polygraph. Baths are constantly aerated with 95% O2 -5% CO2. After a 20 minute stabilization period a concentration of the appropriate agonist which provides a contraction height of 60-80% of the maximum obtainable to that agonist (as determined from full sequential concentration-response curves in separate experiments) is added to the tissue bath and the response recorded. The procedure is repeated until reproducible responses are obtained. […] Percent inhibition produced by the test compound is calculated by subtracting the mean percentage change in control tissue from the mean percentage change in tissues exposed to the test compound. Additional compounds are then evaluated as long as the tissue remains reproducibly responsive to the agonist. […]
structure (smiles),measurement,value
"O=C(NS(=O)(=O)N1CCc2ccc(Cl)c(Cl)c2C1)N1CCc2ccc(Cl)c(Cl)c2C1 [Compound 1, N-(7,8-Dichloro-1,2,3,4-tetrahydroisoquinolin-2yl)Carbonyl-7,8-dichloro-1,2,3,4-tetrahydroisoquinoline-2-sulfonamide]",inhibition at 5 µM,46%
